Laboratory results reported in patent US7652172B2, “Expeditious synthesis of DPD” (The Trustees of Princeton University, priority 2004, dated 2010).

Key:
[1] = 11B NMR DPD-borate binding study; assay type: physicochemical; conditions: 100 μM DPD in 400 μM B(OH)3, pH 7.5
Protocol: To explore the binding of DPD with borate under conditions that more closely resemble those in the natural habitat of V. harveyi and to correlate this study with previous work using DPD produced in vivo and released from the V. harveyi receptor protein, LuxP, the ^11B NMR spectrum of a 100 μM DPD solution in 400 μM B(OH)3 (Dickson et al. 1990) at pH 7.5 was recorded. […] Based on the ratio of integrals for the B(OH)3 peak and the DPD:borate peak, the concentration of DPD:borate complex was calculated to be ca 10 μM. consistent with ca 10% DPD bound at this dilution. We were unable to observe conclusively the presence of complexes with a 2:1 DPD:borate stoichiometry due to sensitivity limitations of the ^11B NMR experiment, although a peak with a S/N of 2 was recorded at δ 9.8 ppm.
To explore further the ability of DPD to complexborate at more physiologically relevant concentrations, a mixture of 10 μL of 40 mM B(OH)3, […] of 10 mM DPD, 100 μL of 1 M potassium phosphate buffer (pH 7), 200 μL of sat. NaHCO3 and 680 μL of D2O was produced to generate a 100 μM DPD solution in 400 μM B(OH)3, at pH 7.5. This solution was then analyzed by ^11B NMR to determine binding, as discussed in the Detailed Description of the Invention.

[2] = test system: V. harveyi strain MM32 (luxN− luxS−); test: V. harveyi autoinducer bioassay (light emission); assay type: cell-based; conditions: for activity compared with enzymatically prepared DPD in the V. harveyi bioassay: equal concentration, 0.5 M potassium phosphate buffer, pH 7.3
Protocol: (§1) V. harveyi strain MM32 (luxN^− luxS^−) was grown overnight and subsequently diluted 5.000-fold in AB growth medium. This bioassay was performed as developed by the method of Schauder et. al. (2001). To 90 μL of diluted cells ,10 μL of various compounds were added, and the resulting cultures were further incubated in a 96-well microtiter dish at 30° C. for approximately 6 h. The concentration of crude DPD was calculated by measuring the amount of homocysteine released in an Ellman's test. Light emission was measured using a Wallac model 1450 microbeta Plus scintillation counter.
A. Comparative bioactivity of enzymatically-produced DPD, synthetic DPD and synthetic ent-DPD. Each of these three compounds and a blank were assessed in the above bioassay at equal concentrations. The bio assays were conducted with a dilution of 0.53 mM enzymatically-produced DPD, a dilution of 5.0 mM synthetic DPD or a dilution of 5.0 mM ent-DPD.

[3] = test system: V. harveyi strain MM32 (luxN− luxS−); test: Effects of low pH on DPD bioactivity (V. harveyi bioassay after acid treatment); assay type: cell-based
Protocol: as §1
B. Effects of low pH on enzmmatically-produced DPD bioactivity. Enzymatically produced DPD (0.53 mM stock concentration) was mixed with sulfuric or hydrochloric acid at a ratio of 1 μL H2SO4 or 5 μL HCl to 250 μL DPD, resulting in solutions with a pH of 1.5 (with H2SO4) or 2 (with HCl). At times indicated, 1 M Tris pH 8.5 was added to restore the pH to neutral and bioactivity was determined. […] Similar results were obtained after exposure to H2SO4 (not shown).
C. Effects of low pH on synthetic DPD bioactivity. Synthetically-produced DPD (100 mM stock concentration) was mixed with H2SO4 at a ratio of 1 μL H2SO4 to 250 μL DPD, resulting in solutions with a pH of 1.3. After 16 h, 1 M Tris pH 8.5 was added at a ratio of 5 μL buffer to 20 uL DPD solution to restore the pH to 7.5.

[4] = Stability of DPD in aqueous solution monitored by 1H NMR; assay type: physicochemical
Protocol: Synthetically-produced DPD was stable under acidic conditions; a 30 mM sample of the molecule was monitored for decomposition via ^1H NMR for 5 h at 20° C. and pH 1.5. […] The purity of the synthetic DPD was further established by reaction with o-phenylenediamine to produce (S)-1-(3-methylquioxalin-2-yl)-ethane-1,2-diol in >98% purity.
To a suspension of 11 (9.6 mg, […]) in D2O) (1.5 mL) was added conc. D2SO4 (1.5 μL, final pD1.5). The reaction was allowed to continue for 5 h and was monitored by ^1H NMR. A ^1H-^1H DQCOSY spectrum was recorded at the 5-h time point to help establish the identity of each ^1H signal. […] The extra signals in the region form 1.35-1.45 ppm and 3.4-4.6 ppm are most likely due to a small amount of 1 that is not hydrated at C3. This hypothesis is supported by the complete disappearance of these peaks upon addition of 1,2-phenylenediamine (see Example 13)

cell growth = test: Cell growth inhibition by deprotection by-product; assay type: cell-based; conditions: concentrations under 1 M

In the case of CC(=O)C(=O)C(O)CO (stereo not shown) [DPD, 4,5-dihydroxypentane-2,3-dione], the “DPD bound to borate” value [1] is reported as about 10%, the “concentration of DPD:borate complex” value ([1]; from ratio of 11B NMR integrals) is reported as about 10 µM and the “activity in the V. harveyi autoinducer-bioassay” value ([2]; deprotection solution with excess borate at pH 7.8, without further purification) is reported as “active”. The “activity compared with enzymatically prepared DPD in the V. harveyi bioassay” value [2] was “equal”, the “activity compared with enzymatically prepared DPD in the V. harveyi bioassay” value ([2]; listed as synthetic DPD) was “equal in activity” and the “change in bioactivity after storage under acidic conditions” value ([3]; pH 1.5-2, dilute aqueous solution, 16 h at 20° C., DPD at least 30 mM and up to 100 mM) was “no significant decrease in bioactivity”. For the same compound, the “effect of acid treatment on autoinducer activity” value (shortened to “effect of acid treatment”) ([3]; synthetic, 100 mM, pH 1.3, 16 h, 20° C., listed as Synthetically-produced DPD) was “no loss in activity”, the “effect of acid treatment” value ([3]; synthetic, 100 mM, pH 1.3, 16 h, 20° C., listed as synthetic DPD) was “did not change the auto inducer activity” and the “decomposition under acidic conditions by 1H NMR” value ([4]; 30 mM, 5 h at 20° C., pH 1.5) was “no decomposition products were observed”. For the same compound, the “stability at basic pH” value ([4]; pH>8, unless bound to borate) was “less stable”.
With CC(=O)C(=O)[C@H](O)CO [Ent-DPD] the “activity relative to DPD (1) in the V. harveyi bioassay” value [2] was 1%.
With O=C1CCCCC1 [cyclohexanone] the “inhibition of cell growth” value (cell growth) was “does not inhibit cell growth”.
For CC(=O)C(=O)C(O)CO (stereo not shown) [enzymatically-produced DPD, 4,5-dihydroxypentane-2,3-dione, reference compound], the “effect of acid treatment” value ([3]; enzymatically produced, 0.53 mM stock, pH 1.5 (H2SO4) or 2 (HCl), up to 16 h) was “did not affect the autoinducer activity”.
